According to paper PMC6306559 (Pharmacology Research & Perspectives, 2018):
Read-outs that look alike come from different tables or passages of the source.

Assays:
[1] = tested on: α1A‐AR expressing COS‐7 cells; format: cell-based, human; settings: 10 μmol/L forskolin; for Modulation of forskolin CRE response by PDE inhibitor: IBMX 500 μmol/L, rolipram 10 μmol/L
[2] = tested on: α1A‐AR expressing COS‐7 cells; assay: Phenylephrine-induced CRE reporter assay; format: cell-based; settings: for Effect of inhibitor on diazepam modulation of phenylephrine‐stimulated CRE response / Cotreatment with diazepam, effect on phenylephrine CRE response / Modulation of phenylephrine CRE response by PDE inhibitor: 0.1 μmol/L phenylephrine; for Modulation of phenylephrine CRE response by PDE inhibitor: IBMX 500 μmol/L, rolipram 10 μmol/L
Method: (§1) cAMP response element (CRE) response assays were performed as previously described by transfecting WT α1A‐ and α1B‐AR stably expressing COS‐7 cells, parental COS‐7 cells or parental HEK293T cells, with a β‐galactosidase expression plasmid under the control of the CRE promoter.10 CRE reporter‐transfected cells were seeded into 96‐well culture plates for 24 hours before treatment with various compounds for 6 hours at 37°C 5% CO2. Media was aspirated, and the cells frozen at −80°C for at least 24 hours before measurement of cellular β‐galactosidase expression using chlorophenol red‐β‐D‐galactopyranoside. Ligands were made up in 0.5% FBS DMEM media. […] HEK293T cells transiently transfected with GPR68 and pCRE were stimulated with sodium bicarbonate‐free, low glucose DMEM, supplemented with 20 mmol/L HEPES and 0.5% FBS at pH 6.8, 7.0, 7.2, 7.4, and 7.8. The pH was adjusted at 37°C with NaOH. Cells were incubated for 6 hours at 37°C, in a room atmosphere incubator.
Nuclear magnetic resonance (NMR) data were processed in Topspin 3.5 using squared cosine‐bells in both dimensions and zero‐filled once, prior to Fourier‐transformation. All other data was analyzed with Graphpad prism 7 (San Diego, CA, USA). All error bars are standard deviation (SD) from three independent experiments. Competition binding assays were performed in duplicate wells. Curves were fit with one site nonlinear regression. For whole cell QAPB binding, the mean QAPB fluorescence intensity (MFI) of at lease 5000 cells was measured, and plotted against QAPB concentration. Values reported represent the mean and SD of at least three K d values calculated from separate measurements. Ca^2+ mobilization data were performed in triplicate wells and normalized to the peak response elicited by 3 μmol/L ionomycin. CRE assay was conducted in triplicate, and data were normalized to the response elicited by the vehicle. Curves were fitted with three variable nonlinear regressions. For GPR68 assays, responses were normalized to CRE response at pH 6.8 (100%) and pH 7.8 (0%).

guinea pig PDE‐4 = settings: cited from earlier work; for Potency relative to diazepam: benzodiazepines unsubstituted at N‐1
α1B‐AR #15 [3] = assay: QAPB competition binding at purified thermostabilized receptor on paramagnetic beads; settings: for QAPB displacement: 10 nmol/L QAPB, 2 hours, benzodiazepines up to 200 μmol/L
WT α1B‐AR [4] = molecular target: T1, WT α1B‐AR (Homo sapiens, UniProt P35368); assay: Intracellular Ca2+ mobilization in stably expressing COS‐7 cells; format: cell-based; settings: for Effect on Ca2+ mobilization: 0 to 50 μmol/L, absence or presence of 10 nmol/L phenylephrine
T1 construct: COS‐7 cells stably expressing unmodified α1B‐AR; expressed in transfected cells
T1 sequence (P35368 1-520): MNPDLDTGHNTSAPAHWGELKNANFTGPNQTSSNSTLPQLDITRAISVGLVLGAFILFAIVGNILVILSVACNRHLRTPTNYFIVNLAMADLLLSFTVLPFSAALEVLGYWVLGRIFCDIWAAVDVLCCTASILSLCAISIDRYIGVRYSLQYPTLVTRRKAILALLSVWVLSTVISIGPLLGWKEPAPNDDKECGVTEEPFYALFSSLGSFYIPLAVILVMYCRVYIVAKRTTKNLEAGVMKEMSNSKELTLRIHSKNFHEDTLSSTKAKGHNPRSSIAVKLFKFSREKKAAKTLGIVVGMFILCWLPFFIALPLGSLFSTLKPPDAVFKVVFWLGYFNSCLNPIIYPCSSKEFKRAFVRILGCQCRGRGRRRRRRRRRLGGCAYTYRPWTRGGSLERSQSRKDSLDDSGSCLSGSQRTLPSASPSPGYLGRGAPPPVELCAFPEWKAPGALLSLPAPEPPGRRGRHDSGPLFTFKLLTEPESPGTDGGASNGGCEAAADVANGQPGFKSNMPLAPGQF

GPR68 = molecular target: T2, GPR68 (Homo sapiens, UniProt Q15743); assay: GPR68 pH-stimulated CRE reporter assay; format: cell-based; settings: pH 7.2; HEK293T cells transfected with GPR68
T2 construct: expressed in transfected cells; host or cells: HEK293T (transient)
Method: as §1, with “Cells were incubated for 6 hours at 37°C, in a room atmosphere incubator.” left out
Nuclear magnetic resonance (NMR) data were processed in Topspin 3.5 using squared cosine‐bells in both dimensions and zero‐filled once, prior to Fourier‐transformation. All other data was analyzed with Graphpad prism 7 (San Diego, CA, USA). […] For whole cell QAPB binding, the mean QAPB fluorescence intensity (MFI) of at lease 5000 cells was measured, and plotted against QAPB concentration. Values reported represent the mean and SD of at least three K d values calculated from separate measurements. […]

[5] = tested on: purified guinea pig PDE‐4; settings: cited from earlier work
[6] = tested on: untransfected human embryonic kidney 293T cells; assay: Forskolin-induced CRE reporter assay; format: cell-based; settings: 50 μmol/L diazepam
[7] = tested on: untransfected HEK293T cells; assay: Isoprenaline-induced CRE reporter assay; format: cell-based, human; settings: 50 μmol/L diazepam
WT α1A‐AR = molecular target: T3, WT α1A‐AR (Homo sapiens, UniProt P35348); assay: Intracellular Ca2+ mobilization in stably expressing COS‐7 cells; format: cell-based; settings: for Effect on Ca2+ mobilization: 0 to 50 μmol/L, absence or presence of 10 nmol/L phenylephrine
T3 construct: expressed in transfected cells
T3 sequence (P35348 1-466): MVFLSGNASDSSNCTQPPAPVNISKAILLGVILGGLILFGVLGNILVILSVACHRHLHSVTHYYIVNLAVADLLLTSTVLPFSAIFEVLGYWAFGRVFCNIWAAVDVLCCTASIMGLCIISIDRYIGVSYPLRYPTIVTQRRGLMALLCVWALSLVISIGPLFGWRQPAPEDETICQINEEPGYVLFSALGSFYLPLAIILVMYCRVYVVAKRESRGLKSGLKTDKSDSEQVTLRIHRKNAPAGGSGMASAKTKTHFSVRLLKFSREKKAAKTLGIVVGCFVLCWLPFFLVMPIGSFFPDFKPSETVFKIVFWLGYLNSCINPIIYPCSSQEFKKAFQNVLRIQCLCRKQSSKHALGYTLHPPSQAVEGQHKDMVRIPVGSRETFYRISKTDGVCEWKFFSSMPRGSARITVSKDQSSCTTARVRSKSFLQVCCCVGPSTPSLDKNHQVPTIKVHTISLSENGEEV

[8] = tested on: α1B‐AR expressing COS‐7 cells; assay: Phenylephrine-induced CRE reporter assay; format: cell-based
[9] = tested on: untransfected COS‐7 cells; assay: Phenylephrine-induced CRE reporter assay; format: cell-based; settings: 50 μmol/L diazepam; cells do not express α1A‐AR and α1B‐AR
Method: as §1

α1A‐AR A4 [10] = settings: for QAPB displacement: 10 nmol/L QAPB, 2 hours, benzodiazepines up to 200 μmol/L
α1A‐AR A4 [11] = settings: 500 μmol/L ligand, 5 μmol/L receptor in DDM, with and without 10 μmol/L prazosin; controls DDM alone and enNTS1
α1A‐AR A4 [12] = settings: previously reported; read-out: K d of QAPB; cited from earlier work
WT α1B‐AR [13] = molecular target: T1, WT α1B‐AR; assay: Whole cell QAPB saturation binding by flow cytometry; settings: COS‐7 cells, read-out: K d of QAPB
Method: Fifty microliter of the cell suspension was added to each well of a V‐bottom 96‐well plate (Sarstead, Nümbrecht, Germany). […] To determine nonspecific binding, cells were exposed to QAPB at the same concentrations as above, but in the presence of 100 μmol/L phentolamine. The cells were incubated with ligands for 1 hour at 20°C prior to detection of bound QAPB with flow cytometry using CytoFLEX LX flow cytometer (Beckman Coulter, Brea, CA, USA).

α1B‐AR #15 [14] = settings: previously reported; read-out: K d of QAPB; cited from earlier work
[15] = 2.5 mmol/L phenylephrine, increasing diazepam
[16] = not in untransfected COS‐7 cells

T2 sequence (Q15743 whole entry, species assumed): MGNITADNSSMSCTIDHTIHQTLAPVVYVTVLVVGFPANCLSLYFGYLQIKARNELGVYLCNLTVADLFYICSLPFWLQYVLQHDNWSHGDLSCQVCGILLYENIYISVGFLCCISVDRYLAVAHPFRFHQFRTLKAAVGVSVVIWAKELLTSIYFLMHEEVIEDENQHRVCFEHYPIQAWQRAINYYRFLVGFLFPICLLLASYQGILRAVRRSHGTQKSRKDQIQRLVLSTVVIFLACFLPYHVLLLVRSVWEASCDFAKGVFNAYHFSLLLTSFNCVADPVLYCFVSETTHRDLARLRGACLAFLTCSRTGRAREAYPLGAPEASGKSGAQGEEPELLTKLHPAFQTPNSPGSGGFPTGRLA

NCCOB(c1ccccc1)c1ccccc1 [2‐APB]
Effect of inhibitor on diazepam modulation of forskolin‐stimulated CRE response ([1]; 50 μmol/L diazepam): had no significant effect | Effect of inhibitor on diazepam modulation of phenylephrine‐stimulated CRE response ([2]; 50 μmol/L diazepam): had no significant effect

COC(=O)C1=C(C)NC(C)=C([N+](=O)[O-])[C@@H]1c1ccccc1C(F)(F)F [(R)‐(+)‐Bay K 8644]
Effect of inhibitor on diazepam modulation of forskolin‐stimulated CRE response ([1]; 50 μmol/L diazepam): had no significant effect | Effect of inhibitor on diazepam modulation of phenylephrine‐stimulated CRE response ([2]; 50 μmol/L diazepam): had no significant effect

CC(C)Cn1c(=O)n(C)c(=O)c2[nH]cnc21 [IBMX]
Cotreatment with diazepam, effect on forskolin CRE response ([1]; 50 μmol/L diazepam): no additive effect was observed | Modulation of forskolin CRE response by PDE inhibitor [1]: positively modulated the CRE response of forskolin | Cotreatment with diazepam, effect on phenylephrine CRE response ([2]; 50 μmol/L diazepam): had no additional positive modulatory effect | Modulation of phenylephrine CRE response by PDE inhibitor [2]: positively modulated the CRE response of phenylephrine to a similar level as diazepam

COc1ccc(S(=O)(=O)N(CCO)c2ccccc2CN(C)C/C=C/c2ccc(Cl)cc2)cc1 [KN‐93]
Effect of inhibitor on diazepam modulation of forskolin‐stimulated CRE response ([1]; 50 μmol/L diazepam): had no significant effect | Effect of inhibitor on diazepam modulation of phenylephrine‐stimulated CRE response ([2]; 50 μmol/L diazepam): had no significant effect

Cl.NCCCCCCNS(=O)(=O)c1cccc2c(Cl)cccc12 [W‐7 hydrochloride]
Effect of inhibitor on diazepam modulation of forskolin‐stimulated CRE response ([1]; 50 μmol/L diazepam): had no significant effect on forskolin stimulation | Effect of inhibitor on diazepam modulation of phenylephrine‐stimulated CRE response ([2]; 50 μmol/L diazepam): significantly reduced both the phenylephrine response and the diazepam modulation of the CRE response

COC(=O)C1=C(C)NC(C)=C(C(=O)OC2CCCN(Cc3ccccc3)C2)C1c1cccc([N+](=O)[O-])c1 (stereo not shown) [benidipine]
Effect of inhibitor on diazepam modulation of forskolin‐stimulated CRE response ([1]; 50 μmol/L diazepam): had no effect | Effect of inhibitor on diazepam modulation of phenylephrine‐stimulated CRE response ([2]; 50 μmol/L diazepam): significantly reduced both the phenylephrine response and the diazepam modulation of the CRE response

CN1CCc2cc3c(cc2[C@H]1[C@@H]1OC(=O)c2c1ccc1c2OCO1)OCO3 [bicuculline]
Effect of inhibitor on diazepam modulation of forskolin‐stimulated CRE response ([1]; 50 μmol/L diazepam): had no effect | Effect of inhibitor on diazepam modulation of phenylephrine‐stimulated CRE response ([2]; 50 μmol/L diazepam): had no effect

O=C1CN=C(c2ccccc2Cl)c2cc([N+](=O)[O-])ccc2N1 [clonazepam]
Potency relative to diazepam (guinea pig PDE‐4): less potent than diazepam

CN1C(=O)CN=C(c2ccccc2)c2cc(Cl)ccc21 [diazepam]
QAPB displacement (α1B‐AR #15 [3]): neither diazepam nor lorazepam displaced QAPB at either receptor | Cooperativity with phenylephrine in QAPB displacement (α1B‐AR #15 [3]; [15]): No cooperativity between diazepam and phenylephrine was observed | Effect on Ca2+ mobilization (WT α1B‐AR [4]): had no effect | Modulation of GPR68 CRE response (GPR68): did not significantly increase the CRE response of GPR68 | Competition with 3H‐rolipram [5]: competes with ^3H‐rolipram | Modulation of forskolin potency in CRE assay [6]: positively modulated the potency | IC50 (guinea pig PDE‐4): 9000 nM | Modulation of isoprenaline CRE efficacy [7]: significantly increased the CRE efficacy of isoprenaline | Effect on Ca2+ mobilization (WT α1A‐AR): had no effect | EC50 ([8]; COS-7, 800 nmol/L phenylephrine, mean ± SD from three experiments, read-out: EC50 for modulating the phenylephrine CRE response): 7800 ± 1900 nM | CRE response in the absence of phenylephrine ([8]; diazepam alone): did not induce a CRE response | Modulation of phenylephrine‐induced CRE response [9]: positively modulated | QAPB displacement (α1A‐AR A4 [10]): neither diazepam nor lorazepam displaced QAPB at either receptor | Cooperativity with phenylephrine in QAPB displacement (α1A‐AR A4 [10]; [15]): No cooperativity between diazepam and phenylephrine was observed | Modulation of phenylephrine potency in CRE assay ([2]; 50 μmol/L diazepam): positively modulated the potency of phenylephrine | EC50 ([2]; COS-7, 200 nmol/L phenylephrine, mean ± SD from three experiments, read-out: EC50 for modulating the phenylephrine CRE response): 6500 ± 4800 nM | CRE response in the absence of phenylephrine ([2]; diazepam alone): did not induce a CRE response

O=C1Nc2ccc(Cl)cc2C(c2ccccc2Cl)=NC1O (stereo not shown) [lorazepam]
QAPB displacement (α1B‐AR #15 [3]): neither diazepam nor lorazepam displaced QAPB at either receptor | Effect on Ca2+ mobilization (WT α1B‐AR [4]): had no effect | Modulation of GPR68 CRE response (GPR68): positively modulated the CRE response | Potency relative to diazepam (guinea pig PDE‐4): less potent than diazepam | STD NMR signals, interpretation (α1A‐AR A4 [11]): nonspecific interactions with detergent micelles | Effect on Ca2+ mobilization (WT α1A‐AR): had no effect | QAPB displacement (α1A‐AR A4 [10]): neither diazepam nor lorazepam displaced QAPB at either receptor

O=C1CN=C(c2ccccc2)c2cc([N+](=O)[O-])ccc2N1 [nitrazepam]
Potency relative to diazepam (guinea pig PDE‐4): less potent than diazepam

CNC[C@H](O)c1cccc(O)c1 [phenylephrine]
QAPB displacement (α1B‐AR #15 [3]): displaced QAPB at both receptor subtypes | Agonist stimulation of calcium mobilization (WT α1B‐AR [4]; [16]): stimulated calcium mobilization | Agonist stimulation of calcium mobilization (WT α1A‐AR; [16]): stimulated calcium mobilization | QAPB displacement (α1A‐AR A4 [10]): displaced QAPB at both receptor subtypes

COc1ccc(C2CNC(=O)C2)cc1OC1CCCC1 (stereo not shown) [rolipram]
Cotreatment with diazepam versus rolipram alone, forskolin CRE response ([1]; 50 μmol/L diazepam): significantly decreased | Cotreatment with diazepam, effect on forskolin CRE response ([1]; 50 μmol/L diazepam): no additive effect was observed | Modulation of forskolin CRE response by PDE inhibitor [1]: positively modulated the CRE response of forskolin | Cotreatment with diazepam, effect on phenylephrine CRE response ([2]; 50 μmol/L diazepam): had no additional positive modulatory effect | Modulation of phenylephrine CRE response by PDE inhibitor [2]: positively modulated the CRE response of phenylephrine to a similar level as diazepam

quinazoline piperazine bodipy [QAPB]
Kd (α1A‐AR A4 [12]): 11.6 nM | Kd (WT α1B‐AR [13]; absence of diazepam): 12 ± 3 nM | Kd (WT α1B‐AR [13]; presence of 50 μmol/L diazepam): 20 ± 13 nM | Kd (α1B‐AR #15 [14]): 8.5 nM
